We go through two compounds from paper PMC11636681, “Pharmacokinetics and pharmacodynamics of antibacterial peptide NZX in Staphylococcus aureus mastitis mouse model” (Applied Microbiology and Biotechnology, 2024).

Series [1] has as its system S. aureus ATCC 43300. Description: In vitro dose-killing curves (24 h). Type of series: cell-based, Staphylococcus aureus. The protocol: The in vitro dose-killing curves of NZX against the test S. aureus strains were conducted as previous described (Brinch et al. [2010]), with some modification. The S. aureus cells in mid-log phage were diluted. Then, the killing curves of NZX against S. aureus strains were carried out in the 48-well plate. Specifically, a volume of 50 μL NZX (0.6–150 μM) was mixed with 450 μL of the above diluted bacterial suspension (5 × 10^5 CFU/mL), and the mixtures were incubated in the Micro Oscillator for 24 h (600 rpm, 37 °C). Subsequently, the bacteria suspensions were plated on MHA medium to count. Lincomycin and ceftiofur were set as antibiotic controls, respectively. PBS was negative control. Results were expressed as the average of three independent experiments data.

Series [2] has as its system S. aureus ATCC 43300. Description: Mouse mastitis model, bacterial counts in mammary tissues. Type of series: in vivo. The settings on record: 24 h after treatment, vs PC group. An excerpt:
The 7 to 8-weeks old ICR mice (80 females, 40 males) were housed in independent ventilated cages, and feed with autoclaved laboratory food and water. Female mice in heat were put into the cage of males (females:males, 2:1) overnight and checked for vaginal plugs at the following morning to induce pregnancy. ICR-lactating mice were used at 6 to 8 days after the birth of the offspring. The mouse mastitis model was established as previously described (Li et al. [2017]). Mice were randomly divided into nine groups: NC group (uninfected group), PC group (infected but without treatment), NZX groups (25, 50, 100, 200 and 400 μg/gland, respectively), lincomycin group (100 μg/gland), and ceftiofur group (100 μg/gland). Each experimental group has six independent experiments with three mice. Specially, the pups were removed 1 h before the intramammary injection of both L4 (on the left) and R4 (on the right) abdominal mammal glands. A 100 μL of S. aureus strains (1 × 10^6 CFU/mL) was administrated to mice in PC, NZX, lincomycin and ceftiofur groups, and the same volume of sterile physiological saline was administrated to mice in NC group. Glands of 3 h post-infection were injected with sterile physiological saline, NZX, lincomycin, or ceftiofur. The mice were euthanized after the treatment for 24 h, and their mammary glands were dissected, weighed, and homogenized. The animal experiments were performed according to the Animal Care and Use Committee of the Feed Research Institute, Chinese Academy of Agricultural Sciences (Permit Number: AEC-CAAS-20090609) in accordance with the Guidelines for Animal Experimentation.
After mouse sacrifice, one part of mammary tissue was taken for bacterial count, and the other part was used for the histopathological analysis. Specifically, tissues were aseptically collected immediately from the dead mice, weighted, homogenized with sterile physiological saline (1:1, W:V). Next, the homogenates were serially diluted (ten-fold dilutions) in physiological saline, plated on MHA plate, and then cultured overnight at 37 °C. The bacterial number on each plate was counted and the results were expressed as Log10 CFU per gram of mammary tissues. In addition, mammary tissues were fixed in 4% paraformaldehyde, then embedded in paraffin, cut into 5 μm sections, and later stained by hematoxylin–eosin (H&E). The stained sections were observed under a light microscope (× 200) for pathological morphology and scoring of mammary tissues (Schmidt et al. [1992]).

The nature of series [3]: Stability of NZX in mammary gland tissue homogenate. The format is in vitro ADME. Conditions: mouse, 100 μg/mL in mammary gland tissue homogenate, 37 °C, SPE then HPLC–UV 280 nm, mean peak area / initial value, read-out: residual amount of NZX in mammary tissue homogenate. The protocol:
(§1) A 0.5 g of mammary tissue or milk were weighed, homogenized, and transferred to a 10 mL polypropylene centrifuge tube, respectively, extracted sequentially by adding into a 3 mL of 0.1 M of McFarland buffer and 1% trichloroacetic acid (TCA), and cleaned by a C18 solid-phase extraction (SPE) cartridge (Oasis MAX 3 cc 60 mg and Oasis HLB 3 cc 60 mg, respectively, Waters, USA). Afterwards, a 2 mL of 45% acetonitrile with 2% formic acid and 3 mL of 45% acetonitrile were used to elute the columns, respectively, the collected eluents were freeze-dried and dissolved in 200 µL of deionized water and filtered by a […] sterile filter membrane before the analysis of high-performance liquid chromatography-ultraviolet (HPLC–UV). The HPLC–UV with a C18 reverse-phase column (ZORBAX Eclipse Plus C18 4.6 mm × 250 mm, 5 µm) conditions for detecting NZX were as follows: the mobile phase consisted of A: 0.1% trifluoroacetate […] in acetonitrile and B: 0.1%TFA in water; the injection volume was 40 μL; the wavelength of UV detector was 280 nm; flow rate was 1.0 mL/min; the column temperature was 35 °C, and the elution was conducted with a linear gradient of 20–45% mobile phase A for 16 min. The linear relationship, limits of detection (LOD), limits of quantitation (LOQ), accuracy and precision were determined by adding the known concentrations of NZX into the extracted blank matrix of mammary gland. Each concentration was conducted three times.
(§2) A 100 μg/mL of NZX was suspended in mammary gland tissue homogenate or milk, respectively, and then incubated at 37 °C for 0, 8, 16 and 24 h, respectively. Afterwards, samples were pretreated and quantified as the above methods. The results were expressed as a ratio of the mean peak area measured at different times divided by the mean value of the initial value.

The next series deals with S. agalactiae. The settings on record: against S. agalactiae; ref Wu et al. [2022]; cited from earlier work. The text has this:
MPCs and PAEs were also important parameters to allow antimicrobial dosage regimens to be developed in a much more scientific approach to reduce treatment cost, and the incidences of drug resistant bacteria and avoid unnecessary drug toxicity (Mackenzie and Gould [1993]).

The subject of another series is S. aureus ATCC 25923. The settings on record: 1 × 10^5 CFU/mL, 16–18 h, 37 °C, value marked a, already published, ref Zheng et al. [2022]; cited from earlier work. The text has this: Table 1 The MICs, MBCs and MPCs of NZX and antibiotics against S. aureus strains (μM) | column: S. aureus ATCC 25923 / MIC
A further series in a line: Stability of NZX in milk. Type of series: in vitro ADME. The settings on record: 100 μg/mL in milk, 37 °C, SPE then HPLC–UV 280 nm, mean peak area / initial value, read-out: retention rate in milk. The protocol:
as §1, §2

Marks after values point to notes of the source that are not given here. Positions of bridges follow the written chain, without caps; N, C: chain ends. Residues, ends and D or L forms follow the SMILES beside them.

On to `CO/N=C(\C(=O)N[C@@H]1C(=O)N2C(C(=O)O)=C(CSC(=O)c3ccco3)CS[C@H]12)c1csc(N)n1` [Ceftiofur], for which the EC50 (as a rule, the concentration giving half of the maximal effect) in the series on S. aureus ATCC 43300 [1] (Staphylococcus aureus, ATCC43300, 50% reduction in Log10 CFU at 24 h between minimum and maximum) was determined as 910 nM. Further, in the series with S. aureus ATCC 43300 [1] (concentration causing no apparent growth in Log10 CFU at 24 h vs initial inoculum), the Cs came to 0.91 µM. Besides, the “bacteria reduction in mammary tissues” value in the series on S. aureus ATCC 43300 [2] (100 μg/gland intramammary) came out at 4.82 Log10 CFU/g.

For `CC[C@H](C)[C@@H]1NC(=O)[C@H](CO)NC(=O)[C@H](CCCCN)NC(=O)[C@@H]2CSSC[C@@H](C(=O)N[C@@H](Cc3ccc(O)cc3)C(=O)O)NC(=O)[C@H](CCCCN)NC(=O)[C@@H]3CSSC[C@H](NC(=O)[C@H](CCC(N)=O)NC(=O)[C@H]([C@@H](C)CC)NC(=O)[C@H](CC(=O)O)NC(=O)[C@H](CC(=O)O)NC(=O)[C@H](CCC(=O)O)NC(=O)[C@H](CO)NC(=O)[C@H](Cc4c[nH]c5ccccc45)NC(=O)[C@@H]4CCCN4C(=O)CNC(=O)[C@H](CC(N)=O)NC(=O)[C@@H](NC(=O)CNC(=O)[C@H](Cc4ccccc4)NC(=O)CN)CSSC[C@H](NC(=O)[C@H](Cc4ccc(O)cc4)NC(=O)CNC(=O)CNC(=O)[C@H](CCCCN)NC(=O)[C@H](Cc4ccc(O)cc4)NC(=O)CNC(=O)[C@H](CCCCN)NC1=O)C(=O)N[C@@H](C)C(=O)N[C@@H](CCCNC(=N)N)C(=O)NCC(=O)NCC(=O)N[C@@H](Cc1ccccc1)C(=O)N[C@@H](C(C)C)C(=O)N3)C(=O)N[C@@H](Cc1c[nH]cn1)C(=O)N[C@@H](CC(N)=O)C(=O)N[C@@H](Cc1c[nH]cn1)C(=O)N2` [NZX] (H-GFGCNGPWSEDDIQCHNHCKSIKGYKGGYCARGGFVCKCY-OH; disulfide 4-30, 15-37, 19-39; N-terminus and C-terminus assumed), the remaining at 8 h, 100 μg/mL in series [3] (8 h) was 72.2%; in “Stability of NZX in milk” (8 h) it was 103%. For the same compound, the results for the remaining at 16 h, 100 μg/mL (in series [3] (16 h); in “Stability of NZX in milk” (16 h)) were 48.4% and 91.8%, respectively. For the same compound, the results for the remaining at 24 h, 100 μg/mL (in series [3] (24 h); in “Stability of NZX in milk” (24 h)) were 47.9% and 85.4%, respectively. Besides, the “bacteria reduction in mammary tissues” value with S. aureus ATCC 43300 [2] (100 μg/gland intramammary) is 3.47 Log10 CFU/g; in the series on S. aureus ATCC 43300 [2] (400 μg/gland intramammary), 8.81 Log10 CFU/g; with S. aureus ATCC 43300 [2] (range over 25 ~ 400 μg/gland intramammary), 0.66 ~ 8.81 Log10 CFU/g. In addition, the MPC in the series with S. agalactiae was 1.82 µM. For the same compound, the MIC in the series with S. aureus ATCC 25923 is listed as 0.46^a μM.
